Source: patent publication US20070149456A1, “Epithelial sodium channel inhibiting agents and uses therefor” (University of Pittsburgh, priority 2005, published 2007)
Entries after “also recorded” stand apart in the source; their conditions may differ.

Target: T1, αRtripleAβγ (Mus musculus, UniProt Q61180+Q9WU38+Q9WU39, R205A/R208A/R231A)
T1 construct: expressed in transfected cells; host or cells: Xenopus laevis oocytes (cRNA injection)
T1 sequence (Q61180 1-699 R205A/R208A/R231A): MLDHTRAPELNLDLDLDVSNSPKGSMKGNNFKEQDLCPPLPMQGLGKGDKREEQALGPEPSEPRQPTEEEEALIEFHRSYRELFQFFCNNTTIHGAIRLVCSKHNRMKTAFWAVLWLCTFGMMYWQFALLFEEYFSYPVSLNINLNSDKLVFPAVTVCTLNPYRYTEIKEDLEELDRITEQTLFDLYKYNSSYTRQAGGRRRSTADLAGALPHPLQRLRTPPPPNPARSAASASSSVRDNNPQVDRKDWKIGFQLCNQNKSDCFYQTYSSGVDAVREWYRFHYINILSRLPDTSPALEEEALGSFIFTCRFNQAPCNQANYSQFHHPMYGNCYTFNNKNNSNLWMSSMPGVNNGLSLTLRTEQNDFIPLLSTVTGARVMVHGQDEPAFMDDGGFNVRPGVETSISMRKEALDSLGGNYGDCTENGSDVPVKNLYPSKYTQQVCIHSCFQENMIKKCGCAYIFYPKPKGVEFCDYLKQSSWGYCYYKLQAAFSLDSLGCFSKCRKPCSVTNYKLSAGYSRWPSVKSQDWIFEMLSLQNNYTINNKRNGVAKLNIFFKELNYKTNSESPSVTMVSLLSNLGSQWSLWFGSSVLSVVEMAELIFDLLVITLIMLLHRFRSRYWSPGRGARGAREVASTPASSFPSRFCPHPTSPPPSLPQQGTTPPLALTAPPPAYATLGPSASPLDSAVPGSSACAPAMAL
T1 sequence (Q9WU38 1-638): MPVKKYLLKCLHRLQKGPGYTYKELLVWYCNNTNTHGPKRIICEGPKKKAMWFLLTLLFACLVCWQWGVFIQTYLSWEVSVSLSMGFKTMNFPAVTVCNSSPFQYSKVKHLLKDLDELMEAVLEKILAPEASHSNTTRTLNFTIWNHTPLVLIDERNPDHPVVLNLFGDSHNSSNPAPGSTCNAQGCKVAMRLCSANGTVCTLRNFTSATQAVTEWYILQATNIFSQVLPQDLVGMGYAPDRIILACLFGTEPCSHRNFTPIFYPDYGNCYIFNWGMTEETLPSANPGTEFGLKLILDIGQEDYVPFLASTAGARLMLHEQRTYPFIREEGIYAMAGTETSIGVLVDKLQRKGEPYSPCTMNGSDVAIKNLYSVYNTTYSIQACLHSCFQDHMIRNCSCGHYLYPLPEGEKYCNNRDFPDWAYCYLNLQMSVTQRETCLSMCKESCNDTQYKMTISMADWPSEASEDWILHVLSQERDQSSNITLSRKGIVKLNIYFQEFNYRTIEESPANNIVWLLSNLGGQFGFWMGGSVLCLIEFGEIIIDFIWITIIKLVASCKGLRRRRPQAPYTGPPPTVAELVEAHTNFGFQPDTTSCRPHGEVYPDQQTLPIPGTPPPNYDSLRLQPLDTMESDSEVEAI
T1 sequence (Q9WU39 1-655): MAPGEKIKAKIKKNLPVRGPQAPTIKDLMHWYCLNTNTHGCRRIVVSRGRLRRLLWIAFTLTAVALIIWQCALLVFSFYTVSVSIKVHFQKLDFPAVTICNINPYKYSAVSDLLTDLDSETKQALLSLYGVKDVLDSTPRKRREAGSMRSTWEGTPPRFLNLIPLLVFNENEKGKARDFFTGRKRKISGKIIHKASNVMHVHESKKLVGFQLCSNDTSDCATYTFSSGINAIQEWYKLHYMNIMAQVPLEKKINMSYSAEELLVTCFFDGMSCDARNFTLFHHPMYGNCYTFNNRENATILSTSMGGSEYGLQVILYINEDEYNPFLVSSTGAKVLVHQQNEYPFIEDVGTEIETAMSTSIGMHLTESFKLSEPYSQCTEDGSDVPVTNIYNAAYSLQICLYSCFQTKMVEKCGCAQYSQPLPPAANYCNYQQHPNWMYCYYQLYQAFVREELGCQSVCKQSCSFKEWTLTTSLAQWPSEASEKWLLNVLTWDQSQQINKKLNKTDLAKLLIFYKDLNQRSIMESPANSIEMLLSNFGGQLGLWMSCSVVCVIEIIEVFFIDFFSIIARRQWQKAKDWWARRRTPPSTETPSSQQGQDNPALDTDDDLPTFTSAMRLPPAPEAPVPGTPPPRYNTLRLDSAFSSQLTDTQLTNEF
Assay: Two-electrode voltage clamp in oocytes expressing channels lacking furin cleavage of the α subunit
Type: cell-based
Conditions: 1 μM α-26
Excerpt: Oocyte Expression—cRNAs for α, β, γ mouse ENaC (wild-type and mutant) subunits and mouse prostasin were synthesized with T3 or T7 m-Message mMachineTM (Ambion, Austin, Tex.). Subunits carrying furin cleavage consensus site mutations and the corresponding wild-type subunits have amino-terminal HA and carboxyl-terminal V5 tags (Hughey, R. P., Bruns, J. B., Kinlough, C. L., Harkleroad, K. L., Tong, Q., Carattino, M. D., Johnson, J. P., Stockand, J. D., and Kleyman, T. R. (2004) J. Biol. Chem. 279, 18111-18114 18). Stage V-VI Xenopus laevis oocytes were pretreated with 1.5 mg/ml of type IV collagenase and injected with 0.5-2 ng of cRNA/subunit. Injected oocytes were maintained as previously reported (Carattino, M. D., Hill, W. G., and Kleyman, T. R. (2003), Arachidonic Acid Regulates Surface Expression of Epithelial Sodium Channels, J Biol. Chem. 278, 36202-36213 29).
Two-electrode Voltage Clamp—Two-electrode voltage clamp (TEV) was performed as previously described (Carattino, M. D., Hill, W. G., and Kleyman, T. R. (2003) J Biol. Chem. 278, 36202-36213 29). The extracellular solution (TEV solution) was (in mM): 110 NaCl, 2 KCl, 1.54 CaCl2, 10 HEPES, pH 7.4, or otherwise as indicated. […] ENaC-mediated whole cell Na^+ currents, at −60 mV,were defined as the amiloride-sensitive component of the current. […]

Ac-DLRGALPHPLQRLRTPPPPNPARSAR-NH2 [α-26]
block of channels: does not block; also recorded: not blocked
